Compared with Sc1nc(-c2cccs2)c(-c2cccs2)[nH]1, CCOC(=O)c1nc(-c2cccs2)oc1N is lower in melting point: 293 to 295 °C for the first, 164 to 166 °C for the second.

First: O=C1C(=O)N(Cc2ccccc2Cl)c2ccccc21
Second: Cc1ccccc1-c1nnc(Cl)n1-c1ccccc1C
The melting point of the first is lower: 130 to 132 °C for the first, 200 to 202 °C for the second.

First: OCc1nccn1CC(F)(F)F
Second: O=C(O)CC(O)(c1ncc[nH]1)C(F)(F)F (stereo not drawn)
The melting point of the first is lower: 89 to 91 °C for the first, 208 to 210 °C for the second.

Compared with CCCC1NC(=O)NC1=O (stereo not drawn), CCCCC1NC(=O)NC1=O (stereo not drawn) is higher in melting point: 132 to 136 °C for the first, 139 to 141 °C for the second.

First: Nc1nc2c(Br)cc(OC(F)(F)F)cc2s1
Second: N#Cc1ccc(Cc2cnc(N)s2)c(C(F)(F)F)c1
The melting point of the first is higher: 202 to 204 °C for the first, 196 to 198 °C for the second.

Compared with CC1(COS(C)(=O)=O)COC1, CC1(C)C(=O)NC(=O)N1CC#N is higher in melting point: 32 to 34 °C for the first, 147 to 149 °C for the second.

Compared with Sc1ncc(-c2ccc(Cl)cc2)n1-c1ccccc1, COc1ccc(-c2[nH]c3ccccc3c2CCC(=O)O)cc1 is lower in melting point: 283 to 285 °C for the first, 134 to 136 °C for the second.

First: CN1CCN(C(=O)c2ccccc2N)CC1
Second: CC(C)(C)NC(=O)c1ccccc1C(=O)O
The melting point of the first is lower: 74 to 76 °C for the first, 146 to 148 °C for the second.

First: NCc1cccc(NC(=O)C2CC2)c1
Second: Cc1cccc(CNC(=O)CCl)c1
The melting point of the first is higher: 96 to 98 °C for the first, 71 to 73 °C for the second.

Compared with ClCc1nc(-c2cccc(Cl)c2)no1, ClCc1nc(-c2cccnc2)no1 is higher in melting point: 38 to 42 °C for the first, 87 to 89 °C for the second.

Compared with Cn1nc(C(=O)O)cc1C1CC1, COc1ccc2nc(C3CC3)cc(C(=O)O)c2c1 is higher in melting point: 196 to 198 °C for the first, 219 to 221 °C for the second.

Compared with O=S1(=O)N=C(Cl)c2ccccc21, CC(=O)Cn1c(CCl)nc2ccccc2c1=O is higher in melting point: 121 to 123 °C for the first, 167 to 169 °C for the second.

First: CC(C)CSc1ccc([N+](=O)[O-])cc1C(=O)O
Second: O=C(O)CCOc1ccccc1[N+](=O)[O-]
The melting point of the first is higher: 189 to 191 °C for the first, 121 to 123 °C for the second.

First: CC(C)c1n[nH]c(C(=O)O)c1Br
Second: O=C(O)c1[nH]nc(-c2ccccc2)c1Br
The melting point of the first is lower: 195 to 197 °C for the first, 260 to 262 °C for the second.

First: O=C(O)CNS(=O)(=O)c1ccc(Cl)c(Cl)c1
Second: CN(C)CCNS(=O)(=O)c1ccc(Cl)c([N+](=O)[O-])c1
The melting point of the first is higher: 127 to 129 °C for the first, 88 to 90 °C for the second.

First: O=C(O)c1ccc(Sc2ccccn2)cc1
Second: O=C(O)c1cccc(NC(=O)c2ccc(F)cc2)c1
The melting point of the first is lower: 179 to 181 °C for the first, 279 to 281 °C for the second.

First: CC1(C)CC(=O)c2ccc(O)cc2O1
Second: O=C1COc2ccc(C(=O)O)cc2N1
The melting point of the first is lower: 168 to 170 °C for the first, 228 to 230 °C for the second.

First: CN(c1ccccc1)c1ccc(C=O)cc1[N+](=O)[O-]
Second: O=C(O)c1sccc1-c1ccccc1
The melting point of the first is lower: 95 to 97 °C for the first, 206 to 208 °C for the second.

Compared with O=C1NC(=O)C2(CCNCC2)N1, O=C1CCS(=O)(=O)c2ccc(F)cc21 is lower in melting point: 240 to 250 °C for the first, 163 to 167 °C for the second.

Compared with CCOC(=O)Nc1ccc2c(CCl)cc(=O)oc2c1, Cc1ccc2oc(=O)[nH]c2c1 is lower in melting point: 247 to 249 °C for the first, 130 to 132 °C for the second.

First: Cc1ccc(-c2n[nH]c(=O)c3ccccc23)cc1C
Second: Cc1nc(-c2ccccc2)c(N)s1
The melting point of the first is higher: 252 to 254 °C for the first, 169 to 171 °C for the second.

First: Nc1nc(-c2ccc3c(c2)OCCO3)n[nH]1
Second: O=C(O)/C=C/c1ccc2c(c1)OCCO2
The melting point of the first is higher: 178 to 180 °C for the first, 165 to 169 °C for the second.

First: O=C(O)c1ccc(S(=O)(=O)CC(F)(F)F)cc1
Second: CNS(=O)(=O)c1ccc(Cl)c(C(F)(F)F)c1
The melting point of the first is higher: 239 to 241 °C for the first, 100 to 102 °C for the second.

First: Cc1ccc(CC(=O)O)c(Cl)c1
Second: COc1ccc(C)cc1NCCCC(=O)O
The melting point of the first is higher: 129 to 131 °C for the first, 99 to 101 °C for the second.

First: Cc1nn(C(F)F)c(C)c1CC(=O)O
Second: CCOC(=O)c1c[nH]n(C)c1=N
The melting point of the first is higher: 173 to 175 °C for the first, 95 to 97 °C for the second.

First: O=C(O)c1ccc2nccnc2c1
Second: Cn1cc(-c2cncc(C(=O)O)c2)cn1
The melting point of the first is lower: 233 to 235 °C for the first, 260 to 262 °C for the second.

First: O=C(NCc1ccccc1)c1cc2ccccc2cc1O
Second: O=Cc1coc(-c2ccccc2)n1
The melting point of the first is higher: 180 to 182 °C for the first, 90 to 92 °C for the second.

First: CC(C)(C)Nc1nccs1
Second: COC(=O)CCNc1ncccc1[N+](=O)[O-]
The melting point of the first is higher: 83 to 85 °C for the first, 65 to 67 °C for the second.

First: COC(=O)c1sc2nc(CCl)[nH]c(=O)c2c1C
Second: ClCc1csc(-c2ccco2)n1
The melting point of the first is higher: 276 to 278 °C for the first, 76 to 78 °C for the second.

First: NCCNS(=O)(=O)Cc1ccon1
Second: NC(=S)c1ccoc1
The melting point of the first is lower: 89 to 91 °C for the first, 103 to 105 °C for the second.

First: Fc1ccc2c(Cl)ncnc2c1
Second: Cc1nc(Cl)cc(-c2ccccn2)n1
The melting point of the first is higher: 90 to 92 °C for the first, 75 to 77 °C for the second.

First: COc1ccc(Br)cc1NCc1cccnc1
Second: FC(F)Oc1cccc(-c2ccc(Cl)nn2)c1
The melting point of the first is lower: 66 to 68 °C for the first, 86 to 88 °C for the second.

First: Nc1ccc(SCCCO)cc1
Second: Nc1ccc(CN2C(=O)Cc3ccc(Cl)cc32)cc1
The melting point of the first is lower: 62 to 64 °C for the first, 129 to 131 °C for the second.

First: CC1CC1c1cc(N)on1 (stereo not drawn)
Second: CC(=O)Nc1cc(N)c(F)cc1F
The melting point of the first is lower: 55 to 57 °C for the first, 104 to 106 °C for the second.

First: FC(F)Sc1nc2ccccc2[nH]1
Second: N#Cc1ccc(F)cc1N=C=O
The melting point of the first is lower: < 17 °C for the first, 36 to 38 °C for the second.

Compared with Cc1ccc(-c2ocnc2C(=O)O)cc1, Cc1ccc(C)c(-n2cnc(O)n2)c1 is lower in melting point: 193 to 195 °C for the first, 166 to 168 °C for the second.

For O=C(O)c1cc(S(=O)(=O)Cl)c(Cl)cc1Cl, the melting point was 158 to 162 °C.
